Reference: article PMC3083694, “Effects of Intermediates between Vitamins K2 and K3 on Mammalian DNA Polymerase Inhibition and Anti-Inflammatory Activity” (International Journal of Molecular Sciences, 2011)
One block for each molecule: values may come before it.

Columns and labels:
Human DNA polymerase λ = biological target: T1, Human DNA polymerase λ (Homo sapiens, UniProt Q9UGP5); set-up: method as in PMID 19502749, PMID 14599551; settings: reported previously; cited from earlier work
T1 construct: made in house
T1 sequence (Q9UGP5 1-575): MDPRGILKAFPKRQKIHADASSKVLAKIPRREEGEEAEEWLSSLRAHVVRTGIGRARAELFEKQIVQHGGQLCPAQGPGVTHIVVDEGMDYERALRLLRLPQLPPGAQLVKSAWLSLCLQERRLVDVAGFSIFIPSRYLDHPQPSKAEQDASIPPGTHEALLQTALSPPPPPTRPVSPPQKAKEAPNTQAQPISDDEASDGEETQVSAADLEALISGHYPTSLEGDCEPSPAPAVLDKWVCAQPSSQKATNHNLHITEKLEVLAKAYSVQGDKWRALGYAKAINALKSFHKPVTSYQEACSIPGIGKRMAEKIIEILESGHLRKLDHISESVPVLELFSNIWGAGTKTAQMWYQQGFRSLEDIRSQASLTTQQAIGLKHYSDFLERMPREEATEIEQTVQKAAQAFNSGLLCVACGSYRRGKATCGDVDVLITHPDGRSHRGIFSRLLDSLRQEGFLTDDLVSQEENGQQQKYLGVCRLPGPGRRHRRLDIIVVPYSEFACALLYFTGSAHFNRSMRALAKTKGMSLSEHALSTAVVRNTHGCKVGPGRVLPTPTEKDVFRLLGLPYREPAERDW

Human DNA polymerase γ [1] = biological target: T2, Human DNA polymerase γ (Homo sapiens, UniProt P54098); test: DNA polymerase activity assay, human pol γ; format: biochemical; settings: 50 μM of each compound; Figure 2
T2 construct: made in house
T2 sequence (P54098 1-1239): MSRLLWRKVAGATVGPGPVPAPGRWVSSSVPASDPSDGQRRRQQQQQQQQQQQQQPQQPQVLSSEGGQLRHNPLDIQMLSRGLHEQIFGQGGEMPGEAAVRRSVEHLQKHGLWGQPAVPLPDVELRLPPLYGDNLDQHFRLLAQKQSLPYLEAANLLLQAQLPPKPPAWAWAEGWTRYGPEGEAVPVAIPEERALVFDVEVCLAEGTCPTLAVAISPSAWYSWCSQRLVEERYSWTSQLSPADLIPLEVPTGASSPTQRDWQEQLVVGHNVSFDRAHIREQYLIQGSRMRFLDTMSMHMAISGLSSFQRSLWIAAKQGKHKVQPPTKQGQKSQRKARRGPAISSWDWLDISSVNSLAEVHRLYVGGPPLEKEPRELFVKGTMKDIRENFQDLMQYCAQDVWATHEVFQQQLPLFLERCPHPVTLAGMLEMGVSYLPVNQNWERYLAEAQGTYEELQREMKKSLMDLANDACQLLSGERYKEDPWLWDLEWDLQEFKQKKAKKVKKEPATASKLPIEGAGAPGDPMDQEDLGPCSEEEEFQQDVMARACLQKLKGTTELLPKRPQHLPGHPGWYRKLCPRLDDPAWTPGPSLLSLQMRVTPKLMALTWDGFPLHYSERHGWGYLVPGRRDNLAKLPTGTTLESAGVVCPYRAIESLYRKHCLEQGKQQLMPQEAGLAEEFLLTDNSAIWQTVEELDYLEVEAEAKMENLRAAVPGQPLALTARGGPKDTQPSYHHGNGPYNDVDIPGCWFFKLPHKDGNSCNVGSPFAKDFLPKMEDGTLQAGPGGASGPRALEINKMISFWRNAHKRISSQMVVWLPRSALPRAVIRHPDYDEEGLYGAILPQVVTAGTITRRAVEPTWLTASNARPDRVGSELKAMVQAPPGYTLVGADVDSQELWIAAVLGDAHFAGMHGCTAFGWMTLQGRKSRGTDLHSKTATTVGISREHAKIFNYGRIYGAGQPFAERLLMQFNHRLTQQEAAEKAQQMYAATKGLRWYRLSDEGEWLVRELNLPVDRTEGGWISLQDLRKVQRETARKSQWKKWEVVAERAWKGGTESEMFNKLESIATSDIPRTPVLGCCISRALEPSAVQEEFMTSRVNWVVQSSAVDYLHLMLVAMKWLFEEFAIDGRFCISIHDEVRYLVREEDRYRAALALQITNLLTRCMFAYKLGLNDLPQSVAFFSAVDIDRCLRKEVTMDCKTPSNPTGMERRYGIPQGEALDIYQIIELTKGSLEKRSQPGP
Method: Pols from mammals, a fish (cherry salmon), an insect (fruit fly) and a plant (cauliflower) were purified, and prokaryotic pols and other DNA metabolic enzymes, such as T7 RNA polymerase, T4 polynucleotide kinase and bovine deoxyribonuclease I, were purchased as described in our previous report. The activities of all pols and other DNA metabolic enzymes were measured as described in previous reports.
The components of the pol assay were poly(dA)/oligo(dT)18 and dTTP as the DNA template-primer and 2′-deoxyribonucleoside 5′-triphosphate (dNTP) substrate, respectively. VK2, VK3, and their synthesized derivatives (i.e., MK-3, MK-2 and MK-1) were dissolved in dimethyl sulfoxide (DMSO) at various concentrations and sonicated for 30 s. The sonicated samples (4 μL) were mixed with 16 μL of each pol enzyme (final amount, 0.05 units) in 50 mM Tris-HCl (pH 7.5) containing 1 mM dithiothreitol, 50% glycerol and 0.1 mM EDTA, and kept at 0 °C for 10 min. These inhibitor–enzyme mixtures (8 μL) were added to 16 μL of each standard enzyme reaction mixture (50 mM Tris-HCl [pH 7.5], 1 mM dithiothreitol, 1 mM MgCl2, 15% glycerol, 10 μM poly(dA)/oligo(dT)18 and 10 μM [^3H]-dTTP), and incubation was carried out at 37 °C for 60 min, except for Taq pol, which was incubated at 74 °C for 60 min. Activity without the inhibitor was considered to be 100%, and the activity remaining at each concentration of inhibitor was determined relative to this value. One unit of pol activity was defined as the amount of enzyme that catalyzed the incorporation of 1 nmol dNTP (dTTP) into the synthetic DNA template-primer (poly(dA)/oligo(dT)18, A/T = 2/1) in 60 min at 37 °C under normal reaction conditions for each enzyme (scintillation counts: approximately 1 pmol of incorporated radioactive nucleotides = 100 cpm).

[2] = test system: TPA-induced edema on mouse ear; test: TPA-induced mouse ear inflammatory test; format: in vivo; settings: 250 or 500 μg applied to ear 30 min before TPA (0.5 μg); edema evaluated after 7 h; Figure 3
Method: All animal studies were performed according to the guidelines outlined in the “Care and Use of Laboratory Animals” of Kobe University. The animals were anesthetized with pentobarbital before undergoing cervical dislocation. Female 8-week-old C57BL/6 mice that had been bred in-house with free access to food and water were used for all experiments. All of the mice were maintained under a 12-h light/dark cycle and housed at a room temperature of 25 °C.
The mouse inflammatory test was performed according to Gschwendt’s method. In brief, an acetone solution of the VK2 and VK3 intermediates (250 or 500 μg in 20 μL) or 20 μL of acetone as a vehicle control was applied to the inner part of the mouse ear. Thirty minutes after the test compound was applied, a TPA solution (0.5 μg/20 μL of acetone) was applied to the same part of the ear. To the other ear of the same mouse, methanol, followed by TPA solution, was applied as a control. After 7 h, a disk (6 mm diameter) was obtained from the ear and weighed. The inhibitory effect (IE) is presented as a ratio of the increase in weight of the ear disks: IE=[(TPA only)−(tested compound plus TPA)]/[(TPA only)−(vehicle)]×100

[3] = test system: LPS-induced production of TNF-α in RAW264.7 cells; test: LPS-induced TNF-α production in mouse macrophages (ELISA); format: cell-based; settings: 10 and 50 μM tested, concentration not specified, Figure 4
Method: A mouse macrophage cell line, RAW264.7, was obtained from American Type Culture Collection (ATCC) (Manassas, VA, U.S.). The cells were cultured in Eagle’s Minimum Essential Medium (MEM) supplemented with 4.5 g of glucose per liter plus 10% fetal calf serum, 5 mM L-glutamine, 50 units/mL penicillin and 50 units/mL streptomycin. The cells were cultured at 37 °C in standard medium in a humidified atmosphere of 5% CO2–95% air.
RAW264.7 cells were placed in a 12-well plate at 5 × 10^4 cells/well and incubated for 24 h. The cells were pretreated with the VK2 and VK3 intermediates (final concentrations of 10 and 50 μM) for 30 min before the addition of 100 ng/mL of LPS. After stimulation with LPS for 24 h, the cell culture medium was collected to measure the amount of TNF-α secreted. The concentration of TNF-α in the culture medium was quantified by using a commercially available enzyme-linked immunosorbent assay (ELISA) development system (Bay Bioscience Co., Ltd., Kobe, Japan) in accordance with the manufacturer’s protocol.

Human DNA polymerase γ [4] = biological target: T2, Human DNA polymerase γ; set-up: method as in PMID 18312466, PMID 18698499, PMID 20030669, PMID 20881898; settings: earlier work of the authors; cited from earlier work

Compound: COc1cc(/C=C/C(=O)CC(=O)/C=C/c2ccc(O)c(OC)c2)ccc1O [curcumin]
Inhibitor of pol λ (selectivity) (Human DNA polymerase λ): pol-λ-specific inhibitor

Inhibitory effect on human pol γ activity (Human DNA polymerase γ [1]): selectively inhibited pol γ
Compound: CC1=CC(=O)c2ccccc2C1=O [VK3, menadione, reference compound]
Anti-inflammatory activity toward TPA-induced edema on mouse ear [2]: weak effect | Inhibitory effect on LPS-stimulated TNF-α production [3]: moderate inhibitory effect | Inhibitor of human pol γ (Human DNA polymerase γ [4]): potent and specific inhibitor

Compound: CC1=C(C/C=C(\C)CCC[C@H](C)CCC[C@H](C)CCCC(C)C)C(=O)c2ccccc2C1=O [VK1, phylloquinone]
Inhibitor of human pol γ (Human DNA polymerase γ [4]): not
